{"source": "patent US9409952B2", "about": "“Peptide-compound cyclization method” (Chugai Seiyaku Kabushiki Kaisha, priority 2011, dated 2016)", "key": {"[1]": {"assay": "Identification of the metabolic site in mouse liver microsome (LC/MS)", "type": "in vitro ADME", "details": "10 uM, mouse liver microsome 0.5 mg protein/mL, 1 hour, with NADPH", "method": "Compound P-113 cyclized peptide was metabolically reacted at a concentration of 10 uM with a microsome solution prepared at 0.5 mg protein/mL from mouse liver (male, manufactured by XENOTECH, USA) using 100 mM phosphate buffer (pH 7.4) for 1 hour in the presence of NADPH (FIG. 35). After the reaction, deproteinization treatment with acetonitrile was provided, and the resulting metabolites were analyzed with a high resolution LC/MS instrument (Q-TOF Ultima API, manufactured by Waters Corporation, USA). Mass chromatograms of the metabolites are shown below. […] MS/MS spectra of the peaks are shown below, respectively. The metabolites of Peak 1 and Peak 2 were assumed to be hydroxylated in the partial structures containing highly lipophilic side chain cyclohexyl groups. […] The metabolite of Peak 4 was assumed to have a thiol-containing site oxidized. Taking the ease of oxidation of this site into consideration, it was believed that the sulfur atom is likely to be the metabolic site."}, "[2]": {"details": "side chain carboxyl group, phenolic hydroxy group or tetrazole; cited from earlier work"}, "[3]": {"target": "T1, soluble human IL-6R (IL-6R) (Homo sapiens, UniProt P08887)", "T1 sequence (P08887 20-355 limits assumed)": "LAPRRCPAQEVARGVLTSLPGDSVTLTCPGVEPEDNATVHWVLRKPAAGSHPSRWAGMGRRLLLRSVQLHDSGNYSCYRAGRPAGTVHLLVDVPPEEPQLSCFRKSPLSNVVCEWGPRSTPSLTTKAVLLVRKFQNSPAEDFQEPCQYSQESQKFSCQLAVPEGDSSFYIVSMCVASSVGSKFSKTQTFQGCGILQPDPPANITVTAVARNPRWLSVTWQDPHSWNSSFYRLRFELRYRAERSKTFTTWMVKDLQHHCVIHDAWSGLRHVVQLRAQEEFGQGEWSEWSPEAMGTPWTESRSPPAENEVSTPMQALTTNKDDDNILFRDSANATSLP", "assay": "IL-6/IL-6R interaction by electrochemiluminescence immunoassay (protein denaturation by desulfurization solution)", "type": "binding", "details": "25 mM HEPES-K pH 7.6, 200 mM TCEP, 250 mM VA-044, 10 mM Cys, room temperature, 50 minutes", "method": "Protein denaturation by a desulfurization reaction solution was evaluated (FIG. 34). As a model system, the effect of the desulfurization reaction condition on IL-6R was evaluated by detecting interaction between IL-6 and IL-6R using electrochemiluminescence immunoassay. First, 750 ng of anti-IL-6R antibody clone No. 17506 (R&D biosystems) was applied to a MSD Multi-array 384-well plate (MSD) and incubated at 4° C. overnight so that the antibody was immobilized on to the plate. The plate was washed with 80 μl of PBST three times to remove the unbound antibody, and blocking was then carried out with 2% skimmed milk for 1 hour. The blocking agent was washed away from the plate with 80 μl of PBST three times, after which 10 μl of 25 nM soluble human IL-6R (IL-6R) was added and the plate was shaken at room temperature for 50 minutes. The plate was washed with 80 μl of PBST three times, a desulfurization reaction solution (25 mM HEPES-K (pH 7.6), 200 mM TCEP, 250 mM VA-044 and 10 mM Cys) was added and the plate was shaken at room temperature for 50 minutes. The plate was washed with 80 μl of PBST three times, 10 μl of human IL-6-BAP (500 nM) was added and the plate was shaken at room temperature for 50 minutes. […] The plate was washed with 80 μl of PBST three times, and 35 μl of 2× read buffer (MSD, R92SC-3) was added, followed by measurement with SECTOR Imager 2400 (MSD) (FIG. 34)."}}, "note": "Positions of bridges follow the written chain, without caps; N, C: chain ends. Non-standard residues stand in square brackets, D forms with d. Residues, ends and D or L forms follow the SMILES beside them. ξ: configuration not given here. *: point of attachment. Cha = N[C@@H](CC1CCCCC1)C(=O)O; Thr(3ξ) = CC(O)[C@H](N)C(=O)O; NMeA = CN[C@@H](C)C(=O)O; Piperidide = C1CCN(*)CC1", "data": [{"smiles": "CC(C)C[C@@H]1NC(=O)CSC[C@@H](C(=O)N[C@@H](CC2CCCCC2)C(=O)N2CCCCC2)NC(=O)[C@H](C)NC(=O)[C@H](C(C)O)NC(=O)[C@H]([C@@H](C)O)NC(=O)[C@H](CC2CCCCC2)NC(=O)[C@H](C)N(C)C1=O", "note": "(stereo partly drawn) [Compound P-113, Ac*-Leu-MeAla-Cha-Thr-Thr-Ala-Cys*-Cha-piperidine] ({CH2CO}-L[NMeA][Cha]T[Thr(3ξ)]AC[Cha]-Piperidide; thioether N-7)", "values": [{"measurement": "metabolites detected", "setting": "[1]", "value": "Four peaks corresponding to hydroxides"}]}, {"smiles": "c1nnn[nH]1", "note": "[Tetrazole]", "values": [{"measurement": "pKa as an acid", "setting": "[2]", "value": 5.6}]}, {"smiles": "OC1CSSCC1O", "note": "(stereo not drawn) [oxidized DTT]", "values": [{"measurement": "effect on interaction between IL-6R and IL-6", "setting": "[3]", "value": "restores the interaction between IL-6R and IL-6"}]}]}
